The source of these data is US20090104633A1, “Kit for Highly Sensitive Detection Assays” (priority 2005, published 2009).

A short description of data set [1]: Hydrolysis half-lifes of active ester derivatives by 1H-NMR. The format is physicochemical. To be noted: 50 mM deuterated phosphate buffer, pD 7.2, room temperature, 1 mM active ester. How it is done:
The hydrolysis half-lifes of active ester derivatives in physiological buffer were determined by ^1H-NMR spectroscopy. For this purpose a 50 mM phosphate buffer in deuterium oxide (D2O, […]) (deutero, Kastellaun, FRG), pD 7.2, was prepared. The phosphate salts were lyophilized thrice from fresh deuterium oxide. Finally, fresh D2O was added and the pD value was verified. […] To initiate the hydrolysis reaction 10 μl of these solutions were added to 490 μl of 50 mM deuterated phosphate-buffer, pD 7.2, spiked with 3-(trimethylsilyl)-1-propanesulfonic acid-D6 sodium salt (TMSPS) (Merck, Darmstadt, FRG) (0.1 mg/ml) as internal reference, resulting in a final concentration of active ester derivatives of 1 mM. The hydrolysis of the active esters was monitored at room temperature by ^1H-NMR spectroscopy with an Avance DRX-600 system (Bruker BioSpin, Rheinstetten, FRG) at 600 MHz. The first ^1H-spectrum was recorded 6-12 min after addition of the phosphate buffer, additional spectra were recorded at about 20, 40, 60, 120, 240, 360 and 1000-1600 min (over night). After the last measurement the pD-value was verified again. The hydrolysis reaction of each active ester derivative was measured in 2-3 independent experiments.
The Bruker software X-WIN-NMR (V 2.5; Bruker BioSpin) was used to acquire and process the data recorded at different time points. For this purpose, signals which were altered in intensity or chemical shift due to deuterolysis and which were not superimposed by signals of other nuclei were integrated and put in relation to the internal standard TMSPS. The concentration of the non-hydrolyzed active ester derivatives was calculated from the change of peak integrals and was plotted versus time.

Data set [2] has as its target T1, insulin (Bos taurus, UniProt P01317).
T1 construct: 2 NH2-termini (chain A and B), 1 lysine side chain; purchased Sigma-Aldrich, Taufkirchen, FRG
Description: Mean degree of derivatization of insulin with active esters (MALDI-TOF-MS). More on the design: species or system bovine. To be noted: 35 nMoles insulin reacted with 350 nMoles active ester, pH 7.2, 90 min RT; three independent experiments. How it is done: (§1) Stock solutions of active esters of the labelling compounds summarized in Table 2 (4.2-9.2 mg/ml, 14 mM) as well as labelling compounds (7a), (7b) and (7c) (approximately 15 mM) were prepared freshly in anhydrous dimethylsulfoxide (DMSO) for each labelling experiment. Likewise, a stock solution of insulin (200 μg/ml, 35 μM; bovine insulin, MW 5733,49; Sigma-Aldrich, Taufkirchen, FRG) in 50 mM phosphate buffer, pH 7.2, 0.02 mM ethylenediaminetetraacetic acid (EDTA) (PBS/EDTA) was prepared. For labelling, insulin (35 nMoles, representing 105 nMoles amino functions (2 NH2-termini (chain A and B), 1 lysine side chain)) was reacted with active esters (350 nMoles) in a final volume of 1.25 ml PBS/EDTA, containing no more than 2% (v/v) DMSO in any experiment. The solutions were mixed on an end-to-end mixer for 90 min at RT and the labelling reactions were terminated by addition of glycine (1 mMole) in PBS/EDTA. Mixing was continued for 60 min at RT before the solution was dialyzed against PBS/EDTA (MWCO 2,000). After another dialysis against water, the heterogeneity of the samples and the molecular masses of the products were determined in MALDI-TOF-MS analyses (Bruker-Reflex II instrument; Bruker-Daltonik, Bremen, FRG). The mean labelling degree was calculated as described elsewhere (Olivier V, Meisen I, Meckelein B, Hirst T R, Peter-Katalinic J, Schmidt M A, Frey A (2003). Influence of targeting ligand flexibility on receptor binding of particulate drug delivery systems. Bioconjug Chem. 14:1203-8.) (Table 6).

The target in data set [3] is T2, Streptavidin AlexaFluor680 (Streptomyces avidinii, UniProt P22629). Description: Dot blot detection of hydrazide-labelled glycoprotein (porcine mucin) on nitrocellulose. Conditions: periodate-oxidized mucin, mean ± SEM.
Description: All subsequent treatments of the membranes were carried out in tight fitting trays. For oxidation or the carbohydrate moieties of the glycoprotein the membranes were incubated for 20 min at RT in 3 ml (0.21 ml/cm^2 membrane) 10 mM sodium m-periodate (Sigma-Aldrich, Taufkirchen, FRG) in 100 mM sodium acetate buffer (pH 5). They were washed another 3× in D-PBS, incubated each for 60 min at RT with 3 ml (0.21 ml/cm^2 membrane) of 2.5 μM labelling-hydrazide (Table 4) in 100 mM sodium acetate buffer (pH 5), washed again 3× in D-PBS and blocked with 1% (w/v) Casein (Hammarsten grade, BDH, Poole, UK) in D-PBS (Casein-PBS) for 30 min at RT. Blocked membranes were incubated for 90 min at RT with 4 ml (0.28 ml/cm^2 membrane) diluted monoclonal antibodies against 2,4-dichlorophenoxyacetic acid or monoclonal antibodies against DIG or with AlexaFluor680-labelled streptavidin (for working concentrations see Table 3) in Casein-PBS and washed 3× with D-PBS. […] After intense washing with D-PBS fluorescence was read out on a fluorescence imager (Odyssey Infrared Imager, LI-COR Biosciences, Lincoln, Nebr., USA) and quantitated with an appropriate image analysis software (Odyssey Software v.1.2). Statistical analysis of the data was carried out with the GraphPad Prism Suite (v.4.0.0, GraphPad Software, San Diego, Calif., USA).
The target of data set [4] is T3, streptavidin-HRP (Streptomyces avidinii, UniProt P22629).
T3 construct: purchased Vector Labs, Burlingame, Calif., USA
Nature of the data set: Detection of active ester-labelled insulin on PVDF filterplates (HRP/TMB). In kind it is binding. Conditions: for Detection limit of labelled protein: insulin conjugate on PVDF, mean ± SEM; for Detection limit of label: insulin conjugate, converted from pg protein with labelling degree (Table 6). The procedure:
as §1
The concentrations of the labelled polypeptides were determined by standard assays and serial dilutions of the solutions were prepared in PBS/EDTA. Equal amounts of the diluted solutions (1,000-0.12 ng conjugate/well, each in 50 μl PBS/EDTA) were applied onto 96-well polystyrene filterplates equipped with polyvinylidene fluoride (PVDF) membrane bottoms (Corning, Corning, N.Y., USA), which had been pre-activated with 70% (v/v) ethanol and washed with phosphate buffer. The plates were incubated for 30 min at room temperature before the solutions were sucked through the membranes with a MultiScreen vacuum manifold (Millipore, Schwalbach, FRG). […] Nonspecific binding sites were blocked with 200 μl/well 2% (w/v) caseinate in D-PBS (Caseinate-PBS) for 30 min at RT and the solutions were removed. […] After the plates were washed another 6× with PBST with the vacuum manifold and 6× with D-PBS with the plate washer, color was developed at room temperature in the dark with 75 μl/well of a highly sensitive tetramethylbenzidine-based substrate reagent (1 mM 3,3′,5,5′-tetramethylbenzidine, 3 mM H2O2 in 200 mM potassium citrate, pH 4.0; (Frey A, Meckelein B, Externest D, Schmidt M A (2000). A stable and highly sensitive 3,3′,5,5′-tetramethylbenzidine-based substrate reagent for enzyme-linked immunosorbent assays. J Immunol Methods. 233:47-56.)). The reaction was terminated after 30 min with 125 μl/well 1 M sulfuric acid.

Data set [5] deals with T2, Streptavidin AlexaFluor680. Description: Dot blot detection of active ester-labelled ovalbumin on nitrocellulose. To be noted: ovalbumin conjugate, mean ± SEM. Also on record: purchased Invitrogen. In kind it is binding. How it is done: Stock solutions of 65-100 mg/ml (120-330 mM) active ester of the labelling compounds (Table 2) were prepared freshly in anhydrous dimethylsulfoxide (DMSO) for each labelling experiment. […] For labelling 100 nMoles ovalbumin (representing 2 μMoles amino functions) were reacted with 1.5 μMoles of active ester in a final volume of 300 μl 100 mM sodium tetraborate, pH 8.2, containing no more than 5% (v/v) DMSO in any experiment. The solutions were mixed on an end-to-end mixer for 180 min at RT and the labelling reactions were terminated by addition of 1.5 mmoles glycine in sodium tetraborate buffer. Mixing was continued overnight at 4° C. before the solutions were dialyzed against sodium tetraborate buffer. The concentrations of the labelled protein were determined by standard assays and serial dilutions of the stock solutions were prepared.

T2 sequence (P22629 25-183): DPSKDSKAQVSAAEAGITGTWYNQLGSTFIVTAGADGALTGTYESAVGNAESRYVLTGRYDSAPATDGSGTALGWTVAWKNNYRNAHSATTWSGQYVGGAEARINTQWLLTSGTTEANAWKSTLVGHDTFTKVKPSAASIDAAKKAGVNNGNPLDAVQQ
T3 sequence (P22629 25-183): as above
T1 sequence (P01317 25-54 limits assumed): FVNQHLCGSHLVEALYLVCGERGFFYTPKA
T1 sequence (P01317 85-105 limits assumed): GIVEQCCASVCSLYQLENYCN

In the case of `O=C(COc1ccc(Cl)cc1Cl)ON1C(=O)CCC1=O` [(1b)], the Hydrolysis half-life in data set [1] is on record as 25 min. For the same molecule, the Mean labelling degree in data set [2] was 0.52 Mole label: Mole insulin.
The matching figures for `O=C(COc1ccc(Cl)cc1Cl)NCCCCCC(=O)ON1C(=O)CC(S(=O)(=O)[O-])C1=O.[Na+]` (centres unmarked) [(3b), 6-(2-(2,4-dichlorophenoxy)acetylamino)-hexanoic acid-N-hydroxysulfosuccinimidyl-ester-sodium Salt]: 231^(*^) min and 1.61 Mole label: Mole insulin.
In the case of `O=C(COc1ccc(Cl)cc1Cl)NCCCCCCCCCCC(=O)ON1C(=O)CC(S(=O)(=O)[O-])C1=O.[Na+]` (centres unmarked) [(3d), 11-(2-(2,4-dichlorophenoxy)acetylamino)-undecanoic acid-N-hydroxysulfosuccinimidyl-ester-sodium Salt], the Mean labelling degree in data set [2] is listed as 0.38 Mole label: Mole insulin.
On to `NNC(=O)CCCCCNC(=O)CCCC[C@@H]1SC[C@@H]2NC(=O)N[C@@H]21` [Biotin-C6 hydrazide, LC-(+)-Biotinoylhydrazide], for which, in data set [3], the “Detection limit of proteins after labelling with hydrazide derivatives” value is on record as 49.1 ± 6.3^ pg.
Regarding `C[C@]12CC[C@H](OCC(=O)NCCCCCC(=O)ON3C(=O)CCC3=O)C[C@H]1CC[C@@H]1[C@@H]2C[C@@H](O)[C@]2(C)[C@@H](C3=CC(=O)OC3)CC[C@]12O` [DIG-C6-NHS, Digoxigenin-3-O-methylcarbonyl-ε-aminocaproyl-N-hydroxysuccinimide], the Hydrolysis half-life in data set [1] is recorded as 248^(*^) min. For the same molecule, the Mean labelling degree in data set [2] was 1.50 Mole label: Mole insulin.
Consider `O=C(CCCCCNC(=O)CCCC[C@@H]1SC[C@@H]2NC(=O)N[C@@H]21)NCCCCCC(=O)ON1C(=O)CCC1=O` [NHS-SLC-biotin, SLC-NHS-(+)-Biotin], for which the Mean labelling degree in data set [2] was 0.08 Mole label: Mole insulin. Also, in data set [4], the “Detection limit of labelled protein” value was 1,277,778.0 ± 237,333.4 pg and the “Detection limit of label” value was 17,829.0 ± 3,311.5 fMole. For the same molecule, the “Detection limit of proteins after labelling with active ester derivatives” value in data set [5] is 39063.0 ± 5508.0 pg.
As for `O=C(CCCC[C@@H]1SC[C@@H]2NC(=O)N[C@@H]21)NCCCCCC(=O)ON1C(=O)CC(S(=O)(=O)[O-])C1=O.[Na+]` (stereo partly drawn) [Sulfo-NHS-LC-biotin, Sulfo-LC-(+)-Biotin], the Hydrolysis half-life in data set [1] came out at 101 min. Further, the Mean labelling degree in data set [2] is listed as 1.72 Mole label: Mole insulin. Besides, in data set [4], the “Detection limit of labelled protein” value is given as 33,854.2 ± 6,107.3 pg and the “Detection limit of label” value was 10,156.0 ± 1,832.1 fMole. Besides, the “Detection limit of proteins after labelling with active ester derivatives” value in data set [5] was found to be 248.0 ± 66.6 pg.
The matching figures for `O=C1N[C@H]2[C@H](CS[C@H]2CCCCC(=O)ON2C(=O)CC(S(=O)(=O)[O-])C2=O)N1.[Na+]` (stereo partly drawn) [Sulfo-NHS-biotin, Sulfo-Succinimidyl-(+)-biotin]: 62 min, 1.79 Mole label: Mole insulin, 62,500.0 ± 15,343.4 pg, 19,512.6 ± 4,790.2 fMole and 246.5 ± 67.2 pg.
As for “SLC-(+)-Biotinoylhydrazide [Biotin-C11 hydrazide]”, in data set [3], the “Detection limit of proteins after labelling with hydrazide derivatives” value is recorded as 114.6 ± 10.4^ pg.
